Experimental findings from patent US10233183B1, “13-hydroxysparteine cinnamic acid derivatives with anti-tumor activities and a method of preparing the same” (SHAANXI UNIVERSITY OF SCIENCE AND TECHNOLOGY, priority 2018, dated 2019) are described below.

Common to all, as to assay type: cell-based
For assay [1], the system named is non-small cell lung cancer cells (H1975). Briefly: MTT tumor cell proliferation inhibition test, H1975. The settings on record: Homo sapiens, NCI-H1975, 48 hours treatment, read-out: Half Inhibitory Concentration IC50, H1975. An excerpt: (§1) The compounds of the present invention were subjected to tumor cell proliferation inhibition test, and conventional MTT method was used. Cell lines used: non-small cell lung cancer cells (H1975), human hepatoma cells (HepG2), human glioma cells (U251), human gastric adenocarcinoma cells (AGS), human breast cancer cells (1590). The culture medium was DMEM+15% NBS+double antibody. […] Antitumor cytarabine (Ara-C) was used as control solution, prepared under the same condition. Cell culture: adherent growth Tumor cells were cultured in 1640 medium containing 10% inactivated neonatal bovine serum and penicillin, streptomycin (1 million U/L), placed in carbon dioxide incubator at 37° C., 5% CO2, and saturated humidity. Cells were treated serially passaged 2-3 times. The first culture was washed with PBS 2 times, and digested with trypsin. Fresh culture medium was added evenly, cells were adjusted to a appropriate concentration and transferred into a new culture flask. Cell in an exponential phase were chosen for the tests. MTT Assay for Cell Viability and IC50 Determination: Experimental Principle: Living cells mitochondria in the dehydrogenase can reduce yellow MTT to water-insoluble blue-violet product MT (MTT formazan), deposited in the cells. The amount of production is proportional to the number of living cells. […] DMSO can dissolve blue violet crystals, and the color depth is proportional to the amount contained, so the absorbance measured by the microplate reader can reflect the cell viability. Methods: The exponential phase cells were digested and counted and seeded in 96-well plates at a density of 2×10^4/mL at 100 μl per well. […] After another 4 hours, the supernatant was discarded, and 100 μl of DMSO was added to each well. After mixing, the absorbance was measured at 570 nm using a microplate reader. An IC50 calculation software was used to determine the half inhibitory concentration (IC50).

The subject of assay [2] is human hepatoma cells (HepG2). Briefly: MTT tumor cell proliferation inhibition test, HepG2. The settings on record: 48 hours treatment, read-out: Half Inhibitory Concentration IC50, HepG2.
Source text: as §1

The test system of assay [3] is human glioma cells (U251). Nature of the assay: MTT tumor cell proliferation inhibition test, U251. The note with it: U-251, 48 hours treatment, read-out: Half Inhibitory Concentration IC50, U251.
Source text: as §1

Assay [4] concerns human gastric adenocarcinoma cells (AGS). Nature of the assay: MTT tumor cell proliferation inhibition test, AGS. The note with it: 48 hours treatment, read-out: Half Inhibitory Concentration IC50, AGS.
Source text: as §1

Assay [5] concerns human breast cancer cells (1590). Briefly: MTT tumor cell proliferation inhibition test, 1590. The note with it: 48 hours treatment, 1590 cells, read-out: Half Inhibitory Concentration IC50, 1590.
Source text: as §1

A further assay deals with different cell lines. Briefly: MTT tumor cell proliferation inhibition test, overall verdict. The note with it: summary in words of Table 1, different cell lines.
Source text: as §1

Some results are limits rather than exact numbers.

As for `Cc1cc(/C=C\C(=O)OC2CCN3[C@@H]4C[C@@H](C[C@@H]3C2)N2CCCC[C@@H]2C4)ccc1O` (stereo partly drawn) [Compound I, (Z)-(6S,7aR,13S,14aR)-tetradecahydro-6,13-methanodipyrido[1,2-a:1′,2′-e][1,5]diazocin-2-yl 3-(4-hydroxy-3-methylphenyl)acrylate], the IC50 in assay [1] was more than 100 µM; in assay [2], 58.7 ± 1.78 µM; in assay [3], 66.9 ± 1.84 µM; in assay [4] it was 32.59 ± 0.29 µM; in assay [5], more than 100 µM. The “in vitro antitumor activities” value in the assay with different cell lines was “good in vitro antitumor activities”.

With `O=C(/C=C\c1cccc(O)c1)OC1CCN2[C@@H]3C[C@@H](C[C@@H]2C1)N1CCCC[C@@H]1C3` (stereo partly drawn) [Compound C, (Z)-(6S,7aR,13S,14aR)-tetradecahydro-6,13-methanodipyrido[1,2-a:1′,2′-e][1,5]diazocin-2-yl 3-(3-hydroxyphenyl)acrylate], the IC50 in assay [1] is 23.7 ± 2.37 µM; in assay [2], 73.55 ± 0.49 µM; in assay [3] it was 5.49 ± 1.98 µM; in assay [4], 26.3 ± 1.48 µM; in assay [5] it was 43.2 ± 0.95 µM. Moreover, the “in vitro antitumor activities” value in the assay with different cell lines was “good in vitro antitumor activities”.

For `COc1cc(/C=C\C(=O)OC2CCN3[C@@H]4C[C@@H](C[C@@H]3C2)N2CCCC[C@@H]2C4)ccc1O` (stereo partly drawn) [Compound F, (Z)-(6S,7aR,13S,14aR)-tetradecahydro-6,13-methanodipyrido[1,2-a:1′,2′-e][1,5]diazocin-2-yl 3-(4-hydroxy-3-methoxyphenyl)acrylate], the IC50 in assay [1] was more than 100 µM; in assay [2] it was more than 100 µM; in assay [3], more than 100 µM; in assay [4] it was more than 100 µM; in assay [5], 88.6 ± 2.12 µM.

`O=C(/C=C\c1ccc(Cl)cc1)OC1CCN2[C@@H]3C[C@@H](C[C@@H]2C1)N1CCCC[C@@H]1C3` (stereo partly drawn) [Compound M, (Z)-(6S,7aR,13S,14aR)-tetradecahydro-6,13-methanodipyrido[1,2-a:1′,2′-e][1,5]diazocin-2-yl 3-(4-chlorophenyl)acrylate]: the IC50 in assay [1] is more than 100 µM; in assay [2] it was 26.8 ± 1.24 µM; in assay [3], 45.9 ± 1.82 µM; in assay [4] it was 55.54 ± 0.044 µM; in assay [5] it was 10.6 ± 1.33 µM. Also, the “in vitro antitumor activities” value in the assay with different cell lines was “good in vitro antitumor activities”.

In the case of `O=C(/C=C\c1ccc(O)cc1)OC1CCN2[C@@H]3C[C@@H](C[C@@H]2C1)N1CCCC[C@@H]1C3` (stereo partly drawn) [Compound B, (Z)-(6S,7aR,13S,14aR)-tetradecahydro-6,13-methanodipyrido[1,2-a:1′,2′-e][1,5]diazocin-2-yl 3-(4-hydroxyphenyl)acrylate], the IC50 in assay [1] was more than 100 µM; in assay [2], 53.69 ± 0.34 µM; in assay [3], 74.98 ± 0.49 µM; in assay [4], more than 100 µM; in assay [5] it was more than 100 µM.

Consider `Cc1ccc(/C=C\C(=O)OC2CCN3[C@@H]4C[C@@H](C[C@@H]3C2)N2CCCC[C@@H]2C4)cc1` (stereo partly drawn) [Compound H, (Z)-(6S,7aR,13S,14aR)-tetradecahydro-6,13-methanodipyrido[1,2-a:1′,2′-e][1,5]diazocin-2-yl 3-(p-tolyl)acrylate], for which the IC50 in assay [1] is 29.9 ± 1.59 µM; in assay [2], 51.1 ± 1.44 µM; in assay [3], 75.4 ± 0.897 µM; in assay [4], 35.7 ± 2.58 µM; in assay [5], more than 100 µM. The “in vitro antitumor activities” value with different cell lines was “good in vitro antitumor activities”.

As for `Nc1ccn([C@@H]2O[C@H](CO)[C@@H](O)[C@@H]2O)c(=O)n1` [Ara-C, cytarabine, reference compound], the IC50 in assay [1] is 19.2 ± 0.39 µM; in assay [2], 20.6 ± 0.54 µM; in assay [3], 39.2 ± 0.54 µM; in assay [4], more than 100 µM; in assay [5], 76.3 ± 2.48 µM.

`O=C(/C=C\c1ccc(O)c(O)c1)OC1CCN2[C@@H]3C[C@@H](C[C@@H]2C1)N1CCCC[C@@H]1C3` (stereo partly drawn) [Compound E, (Z)-(6S,7aR,13S,14aR)-tetradecahydro-6,13-methanodipyrido[1,2-a:1′,2′-e][1,5]diazocin-2-yl 3-(3,4-dihydroxyphenyl)acrylate]: the IC50 was 43.1 ± 1.24 µM in assay [1]; more than 100 µM in assay [2]; 42.2 ± 0.88 µM in assay [3]; more than 100 µM in assay [4]; 36.2 ± 1.98 µM in assay [5]. Besides, the “in vitro antitumor activities” value in the assay with different cell lines is “good in vitro antitumor activities”.

On to `Cc1ccccc1/C=C\C(=O)OC1CCN2[C@@H]3C[C@@H](C[C@@H]2C1)N1CCCC[C@@H]1C3` (stereo partly drawn) [Compound K, (Z)-(6S,7aR,13S,14aR)-tetradecahydro-6,13-methanodipyrido[1,2-a:1′,2′-e][1,5]diazocin-2-yl 3-(o-tolyl)acrylate], for which the IC50 in assay [1] is 89.6 ± 1.34 µM; in assay [2] it was more than 100 µM; in assay [3] it was more than 100 µM; in assay [4], 69.81 ± 0.06 µM; in assay [5], more than 100 µM.

`O=C(/C=C\c1ccccc1)OC1CCN2[C@@H]3C[C@@H](C[C@@H]2C1)N1CCCC[C@@H]1C3` (stereo partly drawn) [Compound A, (Z)-(6S,7aR,13S,14aR)-tetradecahydro-6,13-methanodipyrido[1,2-a:1′,2′-e][1,5]diazocin-2-yl 3-phenylacrylate]: the IC50 is 16.9 ± 1.36 µM in assay [1]; 36.6 ± 3.01 µM in assay [2]; more than 100 µM in assay [3]; 20.3 ± 1.12 µM in assay [4]; 32 ± 1.69 µM in assay [5]. In the assay on different cell lines, the “in vitro antitumor activities” value is “good in vitro antitumor activities”.

For the compound `Cc1cccc(/C=C\C(=O)OC2CCN3[C@@H]4C[C@@H](C[C@@H]3C2)N2CCCC[C@@H]2C4)c1` (stereo partly drawn) [Compound J, (Z)-(6S,7aR,13S,14aR)-tetradecahydro-6,13-methanodipyrido[1,2-a:1′,2′-e][1,5]diazocin-2-yl 3-(m-tolyl)acrylate], the IC50 is 65 ± 1.89 µM in assay [1]; 88.5 ± 1.26 µM in assay [2]; 74.6 ± 2.94 µM in assay [3]; more than 100 µM in assay [4]; 65.43 ± 0.47 µM in assay [5].

As to `COc1cc(/C=C\C(=O)OC2CCN3[C@@H]4C[C@@H](C[C@@H]3C2)N2CCCC[C@@H]2C4)cc(OC)c1O` (stereo partly drawn) [Compound G, (Z)-(6S,7aR,13S,14aR)-tetradecahydro-6,13-methanodipyrido[1,2-a:1′,2′-e][1,5]diazocin-2-yl 3-(4-hydroxy-3,5-dimethoxyphenyl)acrylate], the IC50 was 55.48 ± 0.48 µM in assay [1]; more than 100 µM in assay [2]; 37 ± 1.24 µM in assay [3]; 59.4 ± 0.97 µM in assay [4]; more than 100 µM in assay [5]. Besides, the “in vitro antitumor activities” value in the assay on different cell lines is “good in vitro antitumor activities”.
